{"source": "patent US9655846B2", "about": "“Methods for the preparation of liposomes comprising drugs” (priority 2009, dated 2017)", "key": {"[1]": {"experiment": "Incorporation of docetaxel into liposome", "assay_type": "physicochemical", "details": "docetaxel added after liposome preparation vs conventional process", "method": "As provided herein, the sequence of the addition of docetaxel results in enhanced solubility of the docetaxel. The conventional method of incorporating a hydrophobic drug into liposome is by adding the drug to lipid before liposome preparation. See, e.g., Immordino, M. L. et al., Journal of Controlled Release, 2003, 91: 417-429. By the conventional process, the incorporation of the drug is only 0.3 to 0.7 mg/mL. When docetaxel is added after liposome preparation, the incorporation of docetaxel is increased from 0.3 mg/mL to 5 mg/mL, which is more than 10 fold increase in solubility of the drug in lipid alone.\nIn the conventional liposome preparation, the drug to lipid molar percent ratio is 4-6% with the incorporation of drug into liposome efficiency is only 56%. See Immordino, M. L. et al., Journal of Controlled Release, 2003, 91: 417-429."}, "[2]": {"experiment": "Stability upon dilution or storage, by reverse phase HPLC", "assay_type": "physicochemical", "details": "for time docetaxel remained soluble and formulation stable upon dilution: RP-HPLC", "method": "Docetaxel (5 mg) was added to 31 μL of oleic acid and mixed using a VORTEX®. Ethanolamine (6 μL) was subsequently added and mixed using a VORTEX®. After mixing, the sample was dispersed in 963 μL of water for injection. Docetaxel was soluble and the formulation clear at 5 mg/mL. Docetaxel remained soluble, and the formulation was stable, upon dilution (1:10 in 2.5% glycerol) up to 24 hours as analyzed by a reverse phase high performance liquid chromatography method.\nDocetaxel (5.0 mg) was added to 1 mL of 0.05 M sodium oleate and mixed using a VORTEX®. Docetaxel was soluble and the formulation clear at 5.0 mg/mL. Docetaxel remained soluble, and the formulation was stable, upon dilution (1:10 in 2.5% glycerol) up to 24 hours as analyzed by a reverse phase high performance liquid chromatography method.\nDocetaxel (2 mg) was added to 1 mL of 1 M sodium caprylate and mixed by a VORTEX®. Docetaxel was soluble and the formulation clear at 2 mg/mL. Docetaxel remained soluble, and the formulation was stable, upon dilution (1:2 2.5% glycerol) up to 24 hours as analyzed by a reverse phase high performance liquid chromatography method.\nDocetaxel (7.0 mg) was added to 1 mL of 1 M sodium linoleate and mixed using a VORTEX®. Docetaxel was soluble and the formulation clear at 7.0 mg/mL. Docetaxel remained soluble, and the formulation was stable, upon dilution (1:10 2.5% glycerol) up to 24 hours as analyzed by a reverse phase high performance liquid chromatography method.\nDocetaxel (5 mg) was added to 1 mL of pre-made liposome containing 2 mM sodium oleate and 6% soy phosphatidyl choline, 10% trehalose, pH adjusted to 5-7 using Acetic acid, mixed using a VORTEX®, and microfluidized using a Microfluidizer with 10 passes at 15,000 psi. Five additional passes with the Microfluidizer at 15,000 psi were made to incorporate all 5 mg of the drug into 1 mL of pre-made liposome. Docetaxel was soluble and the formulation was transparent at 5 mg/mL. Docetaxel remained soluble, and the formulation was stable, upon dilution (1:10 in D5W) up to 48 hours as analyzed by a reverse phase high performance liquid chromatography method.\nHydrophobic or lipophilic compounds can be solubilized directly in sodium (or any ion) salt of fatty acid dissolved in an organic solvent. The organic solvent is subsequently removed using rotary evaporation, spray drying, or any other pharmaceutically acceptable processes. The drug-sodium salt of fatty acid mixture is subsequently dispersed in water, isotonic glycerol, or any pharmaceutically acceptable isotonic solution to achieve a desired concentration of the solubilized compound. For example, docetaxel (5 mg/mL) was dissolved in 100 mM sodium oleate in 100% ethanol. Ethanol was completely evaporated using rotary evaporation at 20° C. The docetaxel-sodium oleate was reconstituted with Water For Injection (“WFI”) or 2.5% glycerol to provide 5 mg/mL, 10 mg/mL, or 20 mg/mL concentration of docetaxel.\n50 μl of Docetaxel in ethanol (100 mg/mL) was added to 1 mL of pre-made liposome containing 2 mM sodium oleate and 6% soy phosphatidyl choline, 10% trehalose and pH adjusted to 5-7 using Acetic acid, mixed using a VORTEX® and microfluidized using a Microfluidizer with 10 passes at 15,000 psi. Docetaxel was soluble and the formulation is transparent at 5 mg/mL. Docetaxel remained soluble, and the formulation was stable, upon dilution (1:10 in D5W) up to 48 hours as analyzed by a reverse phase high performance liquid chromatography method. […] The lyophilized product is reconstituted with water for injection at 5 mg, 10, or 20 mg/ml, concentration, essentially free of organic solvent."}}, "data": [{"smiles": "CC(=O)O[C@@]12CO[C@@H]1C[C@H](O)[C@@]1(C)C(=O)[C@H](O)C3=C(C)[C@@H](OC(=O)[C@H](O)[C@@H](NC(=O)OC(C)(C)C)c4ccccc4)C[C@@](O)([C@@H](OC(=O)c4ccccc4)[C@H]21)C3(C)C", "note": "[Docetaxel, docetaxel]", "values": [{"measurement": "increase in solubility of the drug over lipid alone", "setting": "[1]", "value": "more than 10 fold"}, {"measurement": "time docetaxel remained soluble and formulation stable upon dilution", "setting": "[2]; Example 6 oleic acid formulation, dilution 1:10 in 2.5% glycerol", "value": "up to 24 hours"}, {"measurement": "time docetaxel remained soluble and formulation stable upon dilution", "setting": "[2]; Example 7 sodium oleate formulation, dilution 1:10 in 2.5% glycerol", "value": "up to 24 hours"}, {"measurement": "time docetaxel remained soluble and formulation stable upon dilution", "setting": "[2]; Example 8 sodium caprylate formulation, dilution 1:2 2.5% glycerol", "value": "up to 24 hours"}, {"measurement": "time docetaxel remained soluble and formulation stable upon dilution", "setting": "[2]; Example 9 sodium linoleate formulation, dilution 1:10 2.5% glycerol", "value": "up to 24 hours"}, {"measurement": "time docetaxel remained soluble and formulation stable upon dilution", "setting": "[2]; Example 10 oleate liposome formulation, dilution 1:10 in D5W", "value": "up to 48 hours"}, {"measurement": "stability of the lyophilized formulation", "setting": "[2]; Example 10 oleate liposome formulation", "value": "stable for more than a year"}, {"measurement": "time reconstituted docetaxel remained in solution", "setting": "[2]; Example 11: docetaxel-sodium oleate reconstituted with WFI or 2.5% glycerol to 5, 10 or 20 mg/mL", "value": "remained in solution for 2 hours, 4 hours, 6 hours, 8 hours or 24 hours"}, {"measurement": "time docetaxel remained soluble and formulation stable upon dilution", "setting": "[2]; Example 12 nanosome-oleate formulation, dilution 1:10 in D5W", "value": "up to 48 hours"}, {"measurement": "stability of the lyophilized formulation", "setting": "[2]; Example 12 nanosome-oleate formulation", "value": "stable for more than a year"}]}]}
